Experimental findings from patent US7638532B2, “3-aryloxy-8-aza-bicyclo[3.2.1]oct-6-ene derivatives and their use as monoamine neurotransmitter re-uptake inhibitors” (NeuroSearch A/S, priority 2005, dated 2009) are described below.

Series [1] has as its target T1, reuptake of dopamine (DA) in synaptosomes (Rattus norvegicus, UniProt P23977).
T1 construct: in synaptosomes as described in WO 97/16451; from tissue
Briefly: Inhibition of dopamine (DA) reuptake in synaptosomes. It is filed as biochemical.

Series [2] addresses T2, reuptake of noradrenaline (NA) in synaptosomes (Rattus norvegicus, UniProt Q9WTR4).
T2 construct: in synaptosomes as described in WO 97/16451; from tissue
Briefly: Inhibition of noradrenaline (NA) reuptake in synaptosomes. Type of series: biochemical.

Series [3] deals with T3, reuptake of serotonine (5-HT) in synaptosomes (Rattus norvegicus, UniProt P31652).
T3 construct: in synaptosomes as described in WO 97/16451; from tissue
Briefly: Inhibition of serotonine (5-HT) reuptake in synaptosomes. Type of series: biochemical.

Structures can show the parent of a compound that is named as a salt. Where two headings read alike, the source gives them in different places.

T3 sequence (P31652 whole entry): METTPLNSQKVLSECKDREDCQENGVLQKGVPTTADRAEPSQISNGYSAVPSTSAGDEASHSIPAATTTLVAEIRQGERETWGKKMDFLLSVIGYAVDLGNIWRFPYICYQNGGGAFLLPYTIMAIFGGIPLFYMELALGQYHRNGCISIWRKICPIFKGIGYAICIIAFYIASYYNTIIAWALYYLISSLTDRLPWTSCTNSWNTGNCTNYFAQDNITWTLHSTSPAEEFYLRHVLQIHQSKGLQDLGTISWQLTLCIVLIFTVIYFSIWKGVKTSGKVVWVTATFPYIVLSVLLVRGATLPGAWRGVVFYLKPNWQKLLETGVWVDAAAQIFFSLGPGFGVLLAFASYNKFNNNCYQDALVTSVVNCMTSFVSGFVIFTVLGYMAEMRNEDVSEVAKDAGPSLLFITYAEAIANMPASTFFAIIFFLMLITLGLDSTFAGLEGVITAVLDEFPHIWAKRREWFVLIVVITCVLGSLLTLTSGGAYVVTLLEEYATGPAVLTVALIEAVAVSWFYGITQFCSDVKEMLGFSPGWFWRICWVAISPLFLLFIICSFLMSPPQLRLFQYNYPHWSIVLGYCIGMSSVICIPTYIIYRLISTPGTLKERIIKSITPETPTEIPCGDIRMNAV
T1 sequence (P23977 whole entry): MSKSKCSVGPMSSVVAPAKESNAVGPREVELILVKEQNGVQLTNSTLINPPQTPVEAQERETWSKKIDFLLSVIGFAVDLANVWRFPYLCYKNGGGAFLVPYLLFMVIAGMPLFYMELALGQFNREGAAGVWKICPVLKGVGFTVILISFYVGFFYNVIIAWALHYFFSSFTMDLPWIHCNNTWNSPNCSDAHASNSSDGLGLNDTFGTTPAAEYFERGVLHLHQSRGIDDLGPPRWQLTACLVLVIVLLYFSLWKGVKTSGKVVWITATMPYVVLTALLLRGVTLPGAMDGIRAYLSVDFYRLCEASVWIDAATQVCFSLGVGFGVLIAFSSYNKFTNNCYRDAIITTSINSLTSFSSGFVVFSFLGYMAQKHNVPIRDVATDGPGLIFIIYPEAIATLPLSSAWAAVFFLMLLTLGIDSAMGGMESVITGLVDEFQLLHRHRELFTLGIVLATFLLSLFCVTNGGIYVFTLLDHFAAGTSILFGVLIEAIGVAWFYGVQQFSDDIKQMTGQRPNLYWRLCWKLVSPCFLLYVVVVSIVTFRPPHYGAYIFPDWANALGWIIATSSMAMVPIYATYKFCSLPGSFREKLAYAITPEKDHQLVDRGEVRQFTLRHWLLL
T2 sequence (Q9WTR4 1-597): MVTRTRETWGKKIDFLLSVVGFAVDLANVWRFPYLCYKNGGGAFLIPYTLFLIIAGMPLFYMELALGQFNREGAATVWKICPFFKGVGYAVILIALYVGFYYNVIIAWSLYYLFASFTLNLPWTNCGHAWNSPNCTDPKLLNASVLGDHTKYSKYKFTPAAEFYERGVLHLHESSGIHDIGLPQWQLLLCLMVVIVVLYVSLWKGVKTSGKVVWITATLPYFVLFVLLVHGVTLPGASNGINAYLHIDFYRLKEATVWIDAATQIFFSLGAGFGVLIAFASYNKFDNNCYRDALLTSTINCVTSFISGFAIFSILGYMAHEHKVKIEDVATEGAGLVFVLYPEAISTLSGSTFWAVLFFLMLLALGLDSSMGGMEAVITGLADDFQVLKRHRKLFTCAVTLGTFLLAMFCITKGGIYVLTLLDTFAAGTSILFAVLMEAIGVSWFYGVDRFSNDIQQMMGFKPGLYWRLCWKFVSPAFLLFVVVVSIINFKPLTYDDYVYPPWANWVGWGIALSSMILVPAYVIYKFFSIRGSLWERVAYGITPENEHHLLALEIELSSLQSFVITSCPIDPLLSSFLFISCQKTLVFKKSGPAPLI

For `Clc1ccc(O[C@@H]2C[C@H]3C=C[C@@H](C2)N3)cc1Cl` (as salt: hydrochloric acid salt) [1st compound of method A, exo-3-(3,4-Dichloro-phenoxy)-8-aza-bicyclo[3.2.1]oct-6-ene hydrochloric acid salt], the melting point – broadly, the temperature of the solid-liquid transition – is 200 °C (dec.).

Take `Clc1ccc(O[C@@H]2C[C@H]3C=C[C@@H](C2)N3)cc1Br` (as salt: hydrochloric acid salt) [2nd compound of method A, exo-3-(3-Bromo-4-chloro-phenoxy)-8-aza-bicyclo[3.2.1]oct-6-ene hydrochloric acid salt]: the melting point was 240 to 243 °C.

Turning to `Clc1ccc(O[C@@H]2C[C@H]3C=C[C@@H](C2)N3)cc1Cl` [1st compound of method A, exo-3-(3,4-Dichloro-phenoxy)-8-aza-bicyclo[3.2.1]oct-6-ene hydrochloric acid salt], the IC50 (in general, the concentration needed to halve the response being measured) in series [1] was found to be 220 nM; in series [2], 27 nM; in series [3] it was 2.5 nM.

With `Clc1ccc(O[C@@H]2C[C@H]3C=C[C@@H](C2)N3)cc1Br` [2nd compound of method A, exo-3-(3-Bromo-4-chloro-phenoxy)-8-aza-bicyclo[3.2.1]oct-6-ene hydrochloric acid salt], the IC50 was 170 nM in series [1], 110 nM in series [2] and 21 nM in series [3].

For `COc1ccc2cc(O[C@@H]3C[C@H]4C=C[C@@H](C3)N4C)ccc2c1` [3rd compound of method B, exo-3-(6-Methoxy-naphthalen-2-yloxy)-8-methyl-8-aza-bicyclo[3.2.1]oct-6-ene free base], the melting point is 240 °C (dec.). Besides, in series [1] (3H-DA, synaptosomes, read-out: DA-uptake IC50), the IC50 stood at 110 nM. Moreover, the IC50 in series [2] (3H-NA, synaptosomes, read-out: NA-uptake IC50) was found to be 170 nM. Besides, the IC50 in series [3] (3H-5-HT, synaptosomes, read-out: 5-HT-uptake IC50) was determined as 480 nM.
